Tests used:
Type in all cases: cell-based, Plasmodium falciparum
[1] = system: F32-ART5 parasite line (0-3h post-invasion ring-stage parasites); test: Ring-stage Survival Assay (RSA0-3h), F32-ART5 lineage; conditions: for RSA0-3h survival rate (median): 700 nM DHA for 6 h, n=3
Protocol: (§1) The Ring-stage Survival Assay (RSA^0-3h) was carried out as described by Witkowski et al^13 using highly synchronous parasite cultures. In brief, 0-3h post-invasion ring-stage parasites were exposed to 700 nM DHA [dihydroartemisinin, obtained from WWARN (www.wwarn.org/research/tools/qaqc)] or its solvent DMSO for 6 h, washed and then cultivated for the next 66 h without drug. Survival rates were assessed microscopically by counting in Giemsa-stained thin smears the proportion of viable parasites that developed into second-generation rings or trophozoites with normal morphology.
(§2) The F32-ART5 samples tested in the Ring-stage Survival Assay (RSA^0-3h) were collected at the time of the 17th, 48th and 122nd pressure cycles (0.04, 2.7 and 9 μM ART), respectively. The F32-TEM sample was collected at the last mock pressure cycle. The RSA0-3h survival rates were determined in triplicate experiments with different batches of red blood cells, and evaluated as above using Giemsa-stained thin smears read by two independent microscopists (B. W. and F. B.-V.). Survival rates were compared using Mann-Whitney U test. […] The RSA^0-3h survival rate of the F32-TEM line was also determined in triplicate experiments (n=3, median 0%, IQR 0-0.05, P=0.81 for #TEM vs. #17, Mann-Whitney U test).

[2] = system: F32-TEM line (0-3h post-invasion ring-stage parasites); test: Ring-stage Survival Assay (RSA0-3h), F32-TEM line; conditions: last mock pressure cycle, 700 nM DHA for 6 h, n=3
Protocol: as §1, §2

[3] = system: Cambodian parasite isolates (0-3h post-invasion ring-stage parasites); test: Ring-stage Survival Assay (RSA0-3h), culture-adapted Cambodian parasite isolates stratified by K13-propeller allele
Protocol: Fifty clinical P. falciparum isolates from Cambodia (collected in 2010 and 2011) were adapted to in vitro culture as described by Witkowski et al.^45. […] Parasite DNA was extracted from frozen blood aliquots (200 μl) using the Mini blood kit (Qiagen).
as §1

3D7 parasites = test: Ring-stage Survival Assay (RSA0-3h), control 3D7 parasites
Protocol: as §1

## C[C@H]1[C@@H](O)O[C@@H]2O[C@@]3(C)CC[C@H]4[C@H](C)CC[C@@H]1[C@@]24OO3 [DHA, dihydroartemisinin]
[1]; F32-ART5 at drug-pressure cycle #17
  RSA0-3h survival rate (median): 0%
[1]; F32-ART5 at drug-pressure cycle #48
  RSA0-3h survival rate (median): 11.7%
[1]; F32-ART5 at drug-pressure cycle #122
  RSA0-3h survival rate (median): 12.8%
[1]; F32-ART5 lineage after appearance of PF3D7_0110400 D56V and PF3D7_1343700 M476I mutations
  RSA0-3h survival rate: 12.8%
[1]; F32-ART5 lineage before appearance of PF3D7_0110400 D56V and PF3D7_1343700 M476I mutations
  RSA0-3h survival rate: less than 0.01%
[2]
  RSA0-3h survival rate (median): 0%
[3]; isolates with wildtype K13-propeller alleles, n=16
  RSA0-3h survival rate (median): 0.17%
[3]; wildtype K13-propeller, n=17 (FIG. 2), 700 nM DHA for 6 h
  RSA0-3h survival rate (median): 0.16%
[3]; {}
  RSA0-3h survival rate (median): 18.8%
  RSA0-3h survival rates (range): 3.8%-58%
3D7 parasites
  RSA0-3h survival rate: 0.04%
